The target of the first experiment is BTK, recombinant human catalytic domain (aa 393-659) (Homo sapiens (Human), UniProt Q06187). The experiment is described as follows: In vitro BTK kinase activity measured by time-resolved fluorescence resonance energy transfer (trFRET). As to conditions: read-out: Btk IC50. The experiment is classed as biochemical.
BTK, recombinant human catalytic domain (aa 393-659), sequence (Q06187 393-659): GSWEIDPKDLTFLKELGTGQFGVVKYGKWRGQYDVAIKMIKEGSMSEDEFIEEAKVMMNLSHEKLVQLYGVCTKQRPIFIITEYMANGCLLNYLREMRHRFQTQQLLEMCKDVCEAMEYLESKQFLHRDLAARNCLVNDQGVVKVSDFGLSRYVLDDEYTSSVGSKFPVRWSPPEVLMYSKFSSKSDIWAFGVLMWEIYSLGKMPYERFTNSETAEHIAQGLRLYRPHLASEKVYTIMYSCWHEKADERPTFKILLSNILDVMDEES
In the case of `C=CC(=O)N1CC(N(C)c2ccc(C(N)=O)c3[nH]c(-c4ccc5c(c4)COCC5)cc23)C1` [E.9.3], the IC50 is less than 100 nM. The same measure, in the same setting: as for `C=CC(=O)N1CCO[C@H](c2ccc(C(N)=O)c3[nH]c(-c4cnn(C)c4)cc23)C1` [E.9.23], the figure is less than 100 nM. Consider `C=CC(=O)N1C[C@H]2CN(c3ccc(C(N)=O)c4[nH]ccc34)C[C@H]21` [E.9.42], for which the IC50 was in the range of 100 to 1000 nM. Regarding `C=CC(=O)N1CC(C)(N(C)c2ccc(C(N)=O)c3[nH]ccc23)C1` [E.9.35], the IC50 was less than 100 nM. The same measure, in the same setting: as for `COCCNC/C=C/C(=O)Nc1cccc(-c2ccc(C(N)=O)c3[nH]ccc23)c1C` [J.1.3], the figure is 1000 to 10000 nM; as for `CCC(=O)NCc1ccccc1-c1cc2c(-c3cccc(NC(=O)c4nccs4)c3C)ccc(C(N)=O)c2[nH]1` [E.4.2], 1000 to 10000 nM; as for `Cc1c(NC(=O)C2=CCCC2)cccc1-c1ccc(C(N)=O)c2[nH]c(C3=CCN(S(C)(=O)=O)CC3)cc12` [D.7.15], less than 100 nM. On the same count and under the same terms, under `Cc1c(NC(=O)COc2ccccn2)cccc1-c1ccc(C(N)=O)c2[nH]c(C3=CCN(S(C)(=O)=O)CC3)cc12` [D.7.24] stands less than 100 nM; under `C=CC(=O)Nc1cc(-c2ccc(C(N)=O)c3[nH]ccc23)ccn1` [E.1.3], less than 100 nM.

Still in this experiment, the particulars now being: trFRET, 0.001 mM ATP, biotin-TYR1 peptide substrate; read-out: Btk IC50.
As for `C=C(C)C(=O)Nc1cccc(-c2ccc(C(N)=O)c3[nH]ccc23)c1C` [D.8.10], the IC50 was in the range of 1000 to 10000 nM.

Turning to `C=CC(=O)Nc1cccc(-c2ccc(C(N)=O)c3[nH]c(-c4cccc(C(N)=O)c4)cc23)c1C` [A.1.25], the IC50 was less than 100 nM. On the same count and under the same terms, as for `CC(=O)N1CC=C(c2cc3c(-c4cccc(-n5cnc6ccccc6c5=O)c4C)ccc(C(N)=O)c3[nH]2)CC1` [A.3.1], the figure is less than 100 nM; as for `Cc1ccc(-c2cc3c(Nc4ccnn4C)ccc(C(N)=O)c3[nH]2)cc1` [Preparation #T.1, 4-(1-Methyl-1H-pyrazol-5-ylamino)-2-p-tolyl-1H-indole-7-carboxamide], 100 to 1000 nM; as for `C=CC(=O)Nc1cccc(-c2ccc(C(N)=O)c3[nH]c(-c4cccc(NC(C)=O)c4)cc23)c1C` [A.1.15], less than 100 nM. In the case of `C=C(C(=O)Nc1cccc(-c2ccc(C(N)=O)c3[nH]ccc23)c1C)c1ccccc1` [D.8.7], the IC50 lay within 100 to 1000 nM. Still for that read-out and setting: under `CC(=O)N1CC=C(c2cc3c(-c4cccc(NC(=O)c5cc6c(s5)CCCC6)c4C)ccc(C(N)=O)c3[nH]2)CC1` [A.3.5] stands less than 100 nM; under `CCCC(=O)NCc1ccccc1-c1cc2c(-c3cccc(NC(=O)c4nccs4)c3C)ccc(C(N)=O)c2[nH]1` [D.1.8], 1000 to 10000 nM; under `C=CC(=O)Nc1cccc(-c2ccc(C(N)=O)c3[nH]c(-c4ccc(C(=O)N(C)C)cc4)cc23)c1C` [A.1.35], less than 100 nM. Same read-out and setting: as for `Cc1ccc(-c2cc3c(-c4ccn[nH]4)ccc(C(N)=O)c3[nH]2)cc1` [A.8.1], the figure is 100 to 1000 nM. Take `Cc1c(-c2ccc(C(N)=O)c3[nH]c(-c4cncnc4)cc23)cccc1-n1cnc2ccc(F)cc2c1=O` [A.13.2]: the IC50 fell in the range of 100 to 1000 nM.

Turning to `C=CC(=O)Nc1cccc(-c2ccc(C(N)=O)c3[nH]c(-c4cccc(F)c4)cc23)c1C` [A.1.26], the IC50 was less than 100 nM. Same read-out and setting: under `COCCNC(=O)/C=C\C(=O)Nc1cccc(-c2ccc(C(N)=O)c3[nH]ccc23)c1` [D.9.1] stands 100 to 1000 nM; under `C=CC(=O)N1CCCC(c2ccc(C(N)=O)c3[nH]ccc23)C1` (centres unmarked) [Example 25, 4-(1-Acryloylpiperidin-3-yl)-1H-indole-7-carboxamide], 100 to 1000 nM; under `C=CC(=O)N[C@@H]1CC[C@H](c2ccc(C(N)=O)c3[nH]ccc23)C1` (relative stereo) [Example 10, 4-(cis-3-Acrylamidocyclopentyl)-1H-indole-7-carboxamide], less than 100 nM. On the same count and under the same terms, under `CC(=O)N1CC=C(c2cc3c(-c4cccc(NC(=O)c5ccc(C6CC6)cc5)c4C)ccc(C(N)=O)c3[nH]2)CC1` [A.3.6] stands less than 100 nM; under `Cc1c(-c2ccc(C(N)=O)c3[nH]c(-c4ccc(F)cc4)cc23)cccc1N1Cc2ccc(F)cc2C1=O` [A.9.6], less than 100 nM.

For orientation: IC50 means the concentration needed to halve the response being measured.

The values are drawn from patent US9567339B2, “Primary carboxamides as BTK inhibitors” (AbbVie Inc., priority 2013, dated 2017).
